Test results from article PMC12454493, “Insight on novel sulfamoylphenyl pyrazole derivatives as anticancer carbonic anhydrase inhibitors” (Molecular Diversity, 2024).

Key:
Assay type in all cases: cell-based
[1] = system: CCRF-CEM; test: NCI-60 one-dose SRB screen (Leukemia); conditions: Homo sapiens, single dose 10 µM, 48 h, read-out: Growth inhibition percent (GI %)
Method: (§1) The National Cancer Institute (NCI) Developmental Therapeutic Program (www.dtp.nci.nih.gov) selected the 20 novel synthesized compounds 4a-e, 5a-e, 6a-c, 9a-e, 10 and 11 to test for their anticancer activity at a single dose of 10 µM using SRB assay. […] Supplementary Data S3; Table S1 presents the detailed screening results of the most promising compounds. The preliminary screening’s detailed results for the remaining compounds are elucidated in the (Supplementary Data S3; Table S2).
(§2) The guidelines of the Drug Evaluation Branch’s protocol at the NCI in Bethesda served as the basis for the in vitro anticancer screening assays. at one dose 10 µM against a panel of 60 cancer cell lines. The human tumor cell lines used belonged to nine panels: leukemia, melanoma, lung, colon, CNS, ovarian, renal, prostate and breast cancers using the sulforhodamine B (SRB) assay in a 48 h drug exposure protocol.

[2] = system: HL-60(TB); test: NCI-60 one-dose SRB screen (Leukemia); conditions: Homo sapiens, single dose 10 µM, 48 h, read-out: Growth inhibition percent (GI %)
Method: as §1, §2

[3] = system: K-562; test: NCI-60 one-dose SRB screen (Leukemia); conditions: Homo sapiens, K562, single dose 10 µM, 48 h, read-out: Growth inhibition percent (GI %)
Method: as §1, §2

[4] = system: MOLT-4; test: NCI-60 one-dose SRB screen (Leukemia); conditions: Homo sapiens, single dose 10 µM, 48 h, read-out: Growth inhibition percent (GI %)
Method: as §1, §2

[5] = system: RPMI-8226; test: NCI-60 one-dose SRB screen (Leukemia); conditions: Homo sapiens, single dose 10 µM, 48 h, read-out: Growth inhibition percent (GI %)
Method: as §1, §2

[6] = system: SR; test: NCI-60 one-dose SRB screen (Leukemia); conditions: Homo sapiens, single dose 10 µM, 48 h, read-out: Growth inhibition percent (GI %)
Method: as §1, §2

[7] = system: A549/ATCC; test: NCI-60 one-dose SRB screen (Non-Small Cell Lung Cancer); conditions: Homo sapiens, single dose 10 µM, 48 h, read-out: Growth inhibition percent (GI %)
Method: as §1, §2

[8] = system: EKVX; test: as above; conditions: Homo sapiens, single dose 10 µM, 48 h, read-out: Growth inhibition percent (GI %)
Method: as §1, §2

[9] = system: HOP-62; test: as above; conditions: Homo sapiens, single dose 10 µM, 48 h, read-out: Growth inhibition percent (GI %)
Method: as §1, §2

[10] = system: HOP-92; test: as above; conditions: Homo sapiens, single dose 10 µM, 48 h, read-out: Growth inhibition percent (GI %)
Method: as §1, §2

[11] = system: NCI-H226; test: as above; conditions: Homo sapiens, single dose 10 µM, 48 h, read-out: Growth inhibition percent (GI %)
Method: as §1, §2

[12] = system: NCI-H23; test: as above; conditions: Homo sapiens, single dose 10 µM, 48 h, read-out: Growth inhibition percent (GI %)
Method: as §1, §2

[13] = system: NCI-H322M; test: as above; conditions: Homo sapiens, single dose 10 µM, 48 h, read-out: Growth inhibition percent (GI %)
Method: as §1, §2

[14] = system: NCI-H460; test: as above; conditions: Homo sapiens, single dose 10 µM, 48 h, read-out: Growth inhibition percent (GI %)
Method: as §1, §2

[15] = system: NCI-H522; test: as above; conditions: Homo sapiens, single dose 10 µM, 48 h, read-out: Growth inhibition percent (GI %)
Method: as §1, §2

[16] = system: COLO 205; test: NCI-60 one-dose SRB screen (Colon Cancer); conditions: Homo sapiens, single dose 10 µM, 48 h, read-out: Growth inhibition percent (GI %)
Method: as §1, §2

[17] = system: HCC-2998; test: NCI-60 one-dose SRB screen (Colon Cancer); conditions: Homo sapiens, single dose 10 µM, 48 h, read-out: Growth inhibition percent (GI %)
Method: as §1, §2

[18] = system: HCT-116; test: NCI-60 one-dose SRB screen (Colon Cancer); conditions: Homo sapiens, single dose 10 µM, 48 h, read-out: Growth inhibition percent (GI %)
Method: as §1, §2

[19] = system: HCT-15; test: NCI-60 one-dose SRB screen (Colon Cancer); conditions: Homo sapiens, single dose 10 µM, 48 h, read-out: Growth inhibition percent (GI %)
Method: as §1, §2

[20] = system: HT29; test: NCI-60 one-dose SRB screen (Colon Cancer); conditions: Homo sapiens, HT-29, single dose 10 µM, 48 h, read-out: Growth inhibition percent (GI %)
Method: as §1, §2

[21] = system: KM12; test: NCI-60 one-dose SRB screen (Colon Cancer); conditions: Homo sapiens, single dose 10 µM, 48 h, read-out: Growth inhibition percent (GI %)
Method: as §1, §2

[22] = system: SW-620; test: NCI-60 one-dose SRB screen (Colon Cancer); conditions: Homo sapiens, single dose 10 µM, 48 h, read-out: Growth inhibition percent (GI %)
Method: as §1, §2

[23] = system: SF-268; test: NCI-60 one-dose SRB screen (CNS Cancer); conditions: Homo sapiens, single dose 10 µM, 48 h, read-out: Growth inhibition percent (GI %)
Method: as §1, §2

[24] = system: SF-295; test: NCI-60 one-dose SRB screen (CNS Cancer); conditions: Homo sapiens, single dose 10 µM, 48 h, read-out: Growth inhibition percent (GI %)
Method: as §1, §2

[25] = system: SF-539; test: NCI-60 one-dose SRB screen (CNS Cancer); conditions: Homo sapiens, single dose 10 µM, 48 h, read-out: Growth inhibition percent (GI %)
Method: as §1, §2

[26] = system: SNB-19; test: NCI-60 one-dose SRB screen (CNS Cancer); conditions: Homo sapiens, single dose 10 µM, 48 h, read-out: Growth inhibition percent (GI %)
Method: as §1, §2

[27] = system: SNB-75; test: NCI-60 one-dose SRB screen (CNS Cancer); conditions: Homo sapiens, single dose 10 µM, 48 h, read-out: Growth inhibition percent (GI %)
Method: as §1, §2

[28] = system: U251; test: NCI-60 one-dose SRB screen (CNS Cancer); conditions: Homo sapiens, U-251, single dose 10 µM, 48 h, read-out: Growth inhibition percent (GI %)
Method: as §1, §2

[29] = system: LOX IMVI; test: NCI-60 one-dose SRB screen (Melanoma); conditions: Homo sapiens, single dose 10 µM, 48 h, read-out: Growth inhibition percent (GI %)
Method: as §1, §2

Measured: inhibition at 10 µM

NS(=O)(=O)c1ccc(NC(=O)COC(=O)c2cn(-c3ccc(S(N)(=O)=O)cc3)nc2-c2ccccc2)cc1 [Compound 4a, 2-Oxo-2-[(4-sulfamoylphenyl)amino] ethyl 3-phenyl-1-(4-sulfamoylphenyl)-1H-pyrazole-4-carboxylate]
16.6%: [2]
31.1%: [27]
16.7%: [3]
27.8%: [18]
< 5%: all other assays above
